Patent US6620833B1, “Substituted benzimidazoles, production and use thereof as agents for combating parasitic protozoas” (Bayer Aktiengesellschaft, priority 1998, dated 2003)

Tests used:
Type in all cases: in vivo
[1] = test system: Eimeria acervulina, Eimeria maxima and Eimeria tenella; experiment: Cage experiment on coccidiosis/chicks, mixed experimental infection; conditions: for dropping scores / lesion score: assessment 0 to 6; for mortality n: dead animals/animals employed
Procedure: 8 to 12 day-old male chicks (e.g. LSL Brinkschulte/Senden) which have been reared coccidia-free receive the compounds according to the invention (test substances) in the concentration indicated in ppm with the feed from 3 days before (day −3) infection (=a.i.) until 8 (9) days after infection (=p.i.). 3 animals are kept in each cage. One or more groups of this type are employed per dose. Infection is carried out by means of a stomach tube directly into the crop with approximately 100,000 sporulated oocysts of Eimeria acervulina and with approximately 30,000 oocysts each of E. maxima and 40,000 sporulated oocysts of E. tenella. These are highly virulent strains. The exact infection dose is adjusted so that, if possible, one of three experimentally infected untreated chicks dies due to the infection. For assessment of the efficacy, the following criteria are taken into account: weight increase from the start of the experiment to the end of the experiment, death rate due to infection, macroscopic assessment of the faeces with respect to diarrhoea and excretion of blood on days 5 and 7 p.i. (assessment 0 to 6), macroscopic assessment of the intestinal mucosa, in particular of the appendices (assessment 0 to 6) and the oocyst excretion as well as the proportion (in %) of the oocysts sporulating in the course of 24 hours. The number of oocysts in the faeces was determined with the aid of a McMaster counting chamber (see Engelbrecht and coworkers “Parasitologische Arbeitsmethoden in Medizin and Veterinärmedizin” [Parasitological Working Methods in Medicine and Veterinary Medicine], Akademie-Verlag, Berlin (1965)). The individual findings are related to the untreated non-infected control groups and a total score is calculated (cf. A. Haberkorn (1986), pp. 263 to 270 in Research in Avian Coccidiosis ed L. R. McDougald, L. P. Joyner, P. L. Long, Proceedings of the Georgia Coccidiosis Conference, Nov. 18-20, 1985. Athens/Georgia USA).
In the column “ppm”, the concentration of the active compound employed in the feed is indicated in ppm.
In the column “mortality” the percentage of the dead animals is indicated under % and the number of dead animals/animals employed in the experiment is indicated under n.
In the column “weight % of not inf. control” the ratio of the weight of the treated animals to the weight of the non-infected control group is indicated.
In the columns “dropping scores”, “lesion score” and “oocyst control”, individual details of the action are given.
In the column “% efficacy”, the total score is assessed; 0% means no action, 100% means full action.

Eimeria acervulina = experiment: Cage experiment on coccidiosis/chicks, E. acervulina readout; conditions: for Efficacy against Eimeria acervulina: first symbol of cell; on Efficacy against Eimeria acervulina: key: 2=full action; 1=slight action; 0=inactive; D=death
Eimeria maxima = experiment: Cage experiment on coccidiosis/chicks, E. maxima readout; conditions: for Efficacy against Eimeria maxima: second symbol of cell; on Efficacy against Eimeria maxima: key: 2=full action; 1=slight action; 0=inactive; D=death
Eimeria tenella = experiment: Cage experiment on coccidiosis/chicks, E. tenella readout; conditions: for Efficacy against Eimeria tenella: third symbol of cell; on Efficacy against Eimeria tenella: key: 2=full action; 1=slight action; 0=inactive; D=death

## CCN(Cn1c(C(F)(F)F)nc2c(Br)cc3c(c21)OC(F)(F)C(F)(F)O3)C(=O)OC [Ex. 1]
[1]; Table 1, 7.5 ppm in feed
  % efficacy tot.: 65%
  mortality %: 0%
  oocyst in % of inf. control tot.: 1.3%
  weight % of not inf. control: 76%
  dropping scores: 6
  lesion score: 5.3
  mortality n: 0/3
[1]; Table 1, 10 ppm in feed
  % efficacy tot.: 75%
  mortality %: 0%
  oocyst in % of inf. control tot.: 0%
  weight % of not inf. control: 84%
  dropping scores: 6
  lesion score: 3.3
  mortality n: 0/3
[1]; Table 2, 1 ppm in feed
  % efficacy tot.: 36%
  mortality %: 33%
  oocyst in % of inf. control tot.: 82%
  weight % of not inf. control: 31%
  dropping scores: 6
  lesion score: 6
  mortality n: 1/3
[1]; Table 2, 2.5 ppm in feed
  % efficacy tot.: 36%
  mortality %: 33%
  oocyst in % of inf. control tot.: 58%
  weight % of not inf. control: 42%
  dropping scores: 4-6
  lesion score: 6
  mortality n: 1/3
[1]; Table 2, 5 ppm in feed
  % efficacy tot.: 90%
  mortality %: 0%
  oocyst in % of inf. control tot.: 37%
  weight % of not inf. control: 110%
  dropping scores: 1
  lesion score: 0
  mortality n: 0/3
[1]; Table 3, 5 ppm in feed
  % efficacy tot.: 45%
  mortality %: 0%
  oocyst in % of inf. control tot.: 12%
  weight % of not inf. control: 72%
  dropping scores: 6
  lesion score: 6
  mortality n: 0/3
[1]; Table 3, 7.5 ppm in feed
  % efficacy tot.: 65%
  mortality %: 0%
  oocyst in % of inf. control tot.: 1.3%
  weight % of not inf. control: 76%
  dropping scores: 6
  lesion score: 5.3
  mortality n: 0/3
[1]; Table 3, 10 ppm in feed
  % efficacy tot.: 75%
  mortality %: 0%
  oocyst in % of inf. control tot.: 0%
  weight % of not inf. control: 84%
  dropping scores: 6
  lesion score: 3.3
  mortality n: 0/3
Eimeria acervulina; Table 1, 7.5 ppm in feed
  oocyst in % of inf. control ac.: 3%
Eimeria acervulina; Table 1, 10 ppm in feed
  oocyst in % of inf. control ac.: 0%
Eimeria acervulina; Table 2, 1 ppm in feed
  oocyst in % of inf. control ac.: 49%
Eimeria acervulina; Table 2, 2.5 ppm in feed
  oocyst in % of inf. control ac.: 19%
Eimeria acervulina; Table 2, 5 ppm in feed
  oocyst in % of inf. control ac.: 1%
Eimeria acervulina; Table 3, 5 ppm in feed
  oocyst in % of inf. control ac.: 6%
Eimeria acervulina; Table 3, 7.5 ppm in feed
  oocyst in % of inf. control ac.: 3%
Eimeria acervulina; Table 3, 10 ppm in feed
  oocyst in % of inf. control ac.: 0%
Eimeria acervulina; Table 4, dose 2.5 ppm
  Efficacy against Eimeria acervulina: 1
Eimeria acervulina; Table 4, dose 5 ppm
  Efficacy against Eimeria acervulina: 2
Eimeria acervulina; Table 4, dose 10 ppm
  Efficacy against Eimeria acervulina: 2
Eimeria maxima; Table 1, 7.5 ppm in feed
  oocyst in % of inf. control max.: 0%
Eimeria maxima; Table 1, 10 ppm in feed
  oocyst in % of inf. control max.: 0%
Eimeria maxima; Table 2, 1 ppm in feed
  oocyst in % of inf. control max.: 100%
Eimeria maxima; Table 2, 2.5 ppm in feed
  oocyst in % of inf. control max.: 100%
Eimeria maxima; Table 2, 5 ppm in feed
  oocyst in % of inf. control max.: 100%
Eimeria maxima; Table 3, 5 ppm in feed
  oocyst in % of inf. control max.: 0%
Eimeria maxima; Table 3, 7.5 ppm in feed
  oocyst in % of inf. control max.: 0%
Eimeria maxima; Table 3, 10 ppm in feed
  oocyst in % of inf. control max.: 0%
Eimeria maxima; Table 4, dose 2.5 ppm
  Efficacy against Eimeria maxima: 1
Eimeria maxima; Table 4, dose 5 ppm
  Efficacy against Eimeria maxima: 2
Eimeria maxima; Table 4, dose 10 ppm
  Efficacy against Eimeria maxima: 2
Eimeria tenella; Table 1, 7.5 ppm in feed
  oocyst in % of inf. control ten.: 1%
Eimeria tenella; Table 1, 10 ppm in feed
  oocyst in % of inf. control ten.: 1%
Eimeria tenella; Table 2, 1 ppm in feed
  oocyst in % of inf. control ten.: 97%
Eimeria tenella; Table 2, 2.5 ppm in feed
  oocyst in % of inf. control ten.: 55%
Eimeria tenella; Table 2, 5 ppm in feed
  oocyst in % of inf. control ten.: 11%
Eimeria tenella; Table 3, 5 ppm in feed
  oocyst in % of inf. control ten.: 30%
Eimeria tenella; Table 3, 7.5 ppm in feed
  oocyst in % of inf. control ten.: 1%
Eimeria tenella; Table 3, 10 ppm in feed
  oocyst in % of inf. control ten.: 1%
Eimeria tenella; Table 4, dose 2.5 ppm
  Efficacy against Eimeria tenella: 1
Eimeria tenella; Table 4, dose 5 ppm
  Efficacy against Eimeria tenella: 2
Eimeria tenella; Table 4, dose 10 ppm
  Efficacy against Eimeria tenella: 2

## COC(=O)N(C)Cn1c(C(F)(F)F)nc2c(Br)cc3c(c21)OC(F)(F)C(F)(F)O3 [Ex. 2]
Eimeria acervulina; Table 4, dose 2.5 ppm
  Efficacy against Eimeria acervulina: 1
Eimeria acervulina; Table 4, dose 5 ppm
  Efficacy against Eimeria acervulina: 2
Eimeria acervulina; Table 4, dose 10 ppm
  Efficacy against Eimeria acervulina: D D D
Eimeria maxima; Table 4, dose 2.5 ppm
  Efficacy against Eimeria maxima: 2
Eimeria maxima; Table 4, dose 5 ppm
  Efficacy against Eimeria maxima: 2
Eimeria maxima; Table 4, dose 10 ppm
  Efficacy against Eimeria maxima: D D D
Eimeria tenella; Table 4, dose 2.5 ppm
  Efficacy against Eimeria tenella: 1
Eimeria tenella; Table 4, dose 5 ppm
  Efficacy against Eimeria tenella: 2
Eimeria tenella; Table 4, dose 10 ppm
  Efficacy against Eimeria tenella: D D D

## COC(=O)N(C)Cn1c(C(F)(F)F)nc2c(Cl)cc3c(c21)OC(F)(F)C(F)(F)O3 [Ex. 3]
Eimeria acervulina; Table 4, dose 2.5 ppm
  Efficacy against Eimeria acervulina: 0
Eimeria acervulina; Table 4, dose 5 ppm
  Efficacy against Eimeria acervulina: 2
Eimeria acervulina; Table 4, dose 10 ppm
  Efficacy against Eimeria acervulina: 2
Eimeria maxima; Table 4, dose 2.5 ppm
  Efficacy against Eimeria maxima: 2
Eimeria maxima; Table 4, dose 5 ppm
  Efficacy against Eimeria maxima: 2
Eimeria maxima; Table 4, dose 10 ppm
  Efficacy against Eimeria maxima: 2
Eimeria tenella; Table 4, dose 2.5 ppm
  Efficacy against Eimeria tenella: 1
Eimeria tenella; Table 4, dose 5 ppm
  Efficacy against Eimeria tenella: 2
Eimeria tenella; Table 4, dose 10 ppm
  Efficacy against Eimeria tenella: 2

## CCN(Cn1c(C(F)(F)F)nc2c(Cl)cc3c(c21)OC(F)(F)C(F)(F)O3)C(=O)OC [Ex. 4]
Eimeria acervulina; Table 4, dose 2.5 ppm
  Efficacy against Eimeria acervulina: 1
Eimeria acervulina; Table 4, dose 5 ppm
  Efficacy against Eimeria acervulina: 1
Eimeria acervulina; Table 4, dose 10 ppm
  Efficacy against Eimeria acervulina: 1
Eimeria maxima; Table 4, dose 2.5 ppm
  Efficacy against Eimeria maxima: 2
Eimeria maxima; Table 4, dose 5 ppm
  Efficacy against Eimeria maxima: 1
Eimeria maxima; Table 4, dose 10 ppm
  Efficacy against Eimeria maxima: 1
Eimeria tenella; Table 4, dose 2.5 ppm
  Efficacy against Eimeria tenella: 1
Eimeria tenella; Table 4, dose 5 ppm
  Efficacy against Eimeria tenella: 1
Eimeria tenella; Table 4, dose 10 ppm
  Efficacy against Eimeria tenella: 1
